Experimental findings from article PMC4556985, “Inhibitors of ORAI1 Prevent Cytosolic Calcium-Associated Injury of Human Pancreatic Acinar Cells and Acute Pancreatitis in 3 Mouse Models” (Gastroenterology, 2015) are described below.

This experiment has as its target T1, ORAI1 (Homo sapiens, UniProt Q96D31).
T1 construct: with STIM1 (human, co-expressed)
Description: whole-cell patch clamp of ICRAC in HEK […] cells stably expressing hORAI1/hSTIM1. It is filed as cell-based.

T1 sequence (Q96D31 whole entry): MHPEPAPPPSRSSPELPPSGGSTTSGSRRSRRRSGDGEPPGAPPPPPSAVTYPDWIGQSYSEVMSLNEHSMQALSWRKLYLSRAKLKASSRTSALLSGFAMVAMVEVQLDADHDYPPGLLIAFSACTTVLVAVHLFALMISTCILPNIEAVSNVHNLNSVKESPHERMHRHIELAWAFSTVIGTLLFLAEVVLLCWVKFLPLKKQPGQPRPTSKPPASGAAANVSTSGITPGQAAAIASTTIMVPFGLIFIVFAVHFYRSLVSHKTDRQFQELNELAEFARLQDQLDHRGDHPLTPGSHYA
T1 sequence (Q13586 23-685 partner): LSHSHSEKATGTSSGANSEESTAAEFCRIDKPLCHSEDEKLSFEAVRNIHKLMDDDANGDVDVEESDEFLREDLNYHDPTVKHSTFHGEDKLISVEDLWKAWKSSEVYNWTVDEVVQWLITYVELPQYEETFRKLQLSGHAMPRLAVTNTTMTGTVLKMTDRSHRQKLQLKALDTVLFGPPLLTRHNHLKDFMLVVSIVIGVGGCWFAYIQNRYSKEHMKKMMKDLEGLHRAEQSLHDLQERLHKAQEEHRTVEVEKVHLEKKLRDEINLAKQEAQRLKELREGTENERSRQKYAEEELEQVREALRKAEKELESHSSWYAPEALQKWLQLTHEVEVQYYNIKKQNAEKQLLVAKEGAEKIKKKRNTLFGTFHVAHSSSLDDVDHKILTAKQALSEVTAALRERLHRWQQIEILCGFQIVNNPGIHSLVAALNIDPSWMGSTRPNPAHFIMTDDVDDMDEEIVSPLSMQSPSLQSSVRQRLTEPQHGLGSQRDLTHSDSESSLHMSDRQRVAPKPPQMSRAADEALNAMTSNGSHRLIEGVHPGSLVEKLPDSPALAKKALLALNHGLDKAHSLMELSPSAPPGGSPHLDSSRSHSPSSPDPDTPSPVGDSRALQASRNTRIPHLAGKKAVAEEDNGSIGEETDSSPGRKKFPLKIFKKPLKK

In turn, `Cc1cccc(F)c1C(=O)Nc1cnc(-c2cc3c(cc2Cl)OC(F)(F)O3)cn1` [CM_128] showed an IC50 of about 100 nM.
